Assay results from patent publication US12383628B2 (priority 2016, dated 2025).
Square brackets hold non-standard residues; d marks the D form. Ends that are not written are not given here. Peptide text beside a SMILES is read from it. Phe(3-Br) = N[C@@H](Cc1cccc(Br)c1)C(=O)O; Phe(4-Br) = N[C@@H](Cc1ccc(Br)cc1)C(=O)O; Phe(3-I) = N[C@@H](Cc1cccc(I)c1)C(=O)O; 2Nal = N[C@@H](Cc1ccc2ccccc2c1)C(=O)O; Dmt = Cc1cc(O)cc(C)c1C[C@H](N)C(=O)O; β3hF = N[C@H](CC(=O)O)Cc1ccccc1; Cha = N[C@@H](CC1CCCCC1)C(=O)O; Phe∗ = not defined here; Trp∗ = not defined here

assay: Stability and degradability of biogels in human plasma (Example 8); assay type: in vitro ADME; details: human plasma, 37° C.
Description: After centrifugation at 14 000 rpm for 15 minutes, 100 μL supernatant was diluted with 100 μL milliQ water in the injection vial. Injection samples were vortexed for 5 seconds and were analyzed by HPLC. […] Calculations were performed using Microsoft® Office Professional 2010 Excel.

Row | Compound | Extent of degradation
1 | Cc1cc(O)cc(C)c1C[C@H](N)C(=O)N[C@H](CCCNC(=N)N)C(=O)N[C@@H](Cc1ccccc1)C(=O)N[C@@H](Cc1ccccc1)C(=O)N[C@@H](CCC(N)=O)C(=O)N[C@H](CC(=O)N[C@@H](Cc1ccccc1)C(=O)N[C@@H](CCC(N)=O)C(=O)N[C@@H](Cc1ccccc1)C(=O)N[C@@H](CCCCN)C(N)=O)Cc1ccccc1 [CM-137, Dmt-OArg-Phe-Phe-Gln-J3;s-homo-Phe-Phe-Gln-Phe*-Lys-NH2] (H-[Dmt][dR]FFQ[β3hF]FQFK-NH2; N-terminus assumed) | the degradation stops after the cleavage of the first Gin

same assay, conditions: human, plasma; 37° C., in solution, 14 μM

Row | Compound | half-life at 14 μM
2 | Cc1cc(O)cc(C)c1C[C@H](N)C(=O)N[C@H](CCCNC(=N)N)C(=O)N[C@@H](Cc1ccccc1)C(=O)N[C@@H](Cc1ccccc1)C(=O)N[C@@H](CCC(N)=O)C(=O)N[C@H](CC(=O)N[C@@H](Cc1ccccc1)C(=O)N[C@@H](CCC(N)=O)C(=O)N[C@@H](Cc1ccccc1)C(=O)N[C@@H](CCCCN)C(N)=O)Cc1ccccc1 [CM-137, Dmt-OArg-Phe-Phe-Gln-J3;s-homo-Phe-Phe-Gln-Phe*-Lys-NH2] (H-[Dmt][dR]FFQ[β3hF]FQFK-NH2; N-terminus assumed) | ~2.05 h
3 | Cc1cc(O)cc(C)c1C[C@H](N)C(=O)N[C@H](CCCCN)C(=O)N[C@@H](Cc1ccccc1)C(=O)N[C@@H](Cc1ccccc1)C(=O)N[C@@H](CCC(N)=O)C(=O)N[C@@H](Cc1ccccc1)C(=O)N[C@@H](CCC(N)=O)C(=O)N[C@@H](Cc1ccccc1)C(=O)N[C@@H](CCCCN)C(N)=O [CM-136, Dmt-OLy:s-Phe-Phe-Gln-Phe*-Gln-Phe*-Lys-NH2] (H-[Dmt][dK]FFQFQFK-NH2) | ~0.183 h

assay: Peptide gelation (tilted tube / inverted vial test, minimum gelation concentration); assay type: physicochemical; details: not given
Description: The peptide gelation occurred by dissolving the TFA salt of the hexapeptide (2 mg) in 100 μL of PBS solution (pH 7.4) or physiological saline solution (0.9% NaCl).
Both peptides 2 and 4 (Table 1) gave a transparent gel in the same conditions (PBS 10 mM at pH 7.4 with a minimum gelation concentration of 24 mM; 2% w/v). To evaluate the mechanical properties of these hydrogels in a more quantitative manner, rheological experiments were performed. The viscoelastic properties of the peptide hydrogels were measured by dynamic rheometry at 37° C. This technique allowed to measure the storage modulus G′ (corresponding to the material's stiffness or rigidity), loss modulus G″ (corresponding to the viscous properties of the material) and loss factor tan (o) (ratio of G″ over G′). According to the Winter-Chambon criterion, a material reaches gelation in rheological terms if the phase angle o gets frequency-independent (F. Chambon et al., 1987 and H. Winter et al., 1987).
The peptide gelation occurred by dissolving the TFA salt of the peptide in 100 μL of PBS solution or physiological saline solution (0.9% NaCl) (pH 7.4).
The peptide gelation occurs by dissolving the TFA salt of the hydrogelator (1 or 2 mg) in 100 μL of aqueous media, PBS solution (pH 7.4) or physiological saline solution (0.9% NaCl). After successive vortexing and sonication, the gel is left to rest overnight at room temperature.
The hydrogelation was realized under physiologically relevant conditions, namely via the addition of phosphate-buffered saline (PBS) or sterile physiological saline solution (0.9% NaCl). The needed amount of hydrogelator was weighed in an Eppendorf® and solubilized by the addition of the above solutions. After vortex and sonication steps, the resulting solution was left at room temperature until gelation occurred. The gelation was qualitatively verified by the inverted vial test (if no gravitational flow was visible the gelation was considered successful). It can be noticed that all peptide hydrogelators depicted formed gels in PBS and saline solution at a concentration of 1 to 2% w/v.

Row | Compound | Biogel formation
4 | SEQ ID NO: 56, modified by the inclusion of an ester as linker: biogel MOJ-02 modified by an ester linker (spacer) between the hydrogelator part and the biological active ingredient (Y[dR]FFQ[β3hF]FQFK-NH2; not fully specified (residue 9); also: ester linker between hydrogelator part and active ingredient, position not given here) | able to form a biogel spontaneously

same assay, conditions: 2% w/v, PBS 10 mM, pH 7.4

Row | Compound | Gelation behaviour
5 | H-AEAQAK-NH2 [compound 8, H-Ala-Glu-Ala-Gln-Ala-Lys-NH2] | remained in solution
6 | Ac-Phe-Glu-Phe*-Gln-Phe-Lys-NH2 [peptide 3] | macroscopic aggregation
7 | H-Leu-Glu-Leu-Gln-Leu-Lys-NH2 (H-LELQLK-NH2) [peptide 6] | remained in solution
8 | H-IEIQIK-NH2 [compound 5, H-Ile-Glu-Ile-Gln-Ile-Lys-NH2] | formed gels
9 | NCCCC[C@H](NC(=O)[C@H](CC1CCCCC1)NC(=O)[C@H](CCC(N)=O)NC(=O)[C@H](CC1CCCCC1)NC(=O)[C@H](CCC(=O)O)NC(=O)[C@@H](N)CC1CCCCC1)C(N)=O [compound 9, H-Cha-Glu-Cha-Gln-Cha-Lys-NH2] (H-[Cha]E[Cha]Q[Cha]K-NH2) | formed gels
10 | H-VEVQVK-NH2 [compound 7, H-Val-Glu-Val-Gln-Val-Lys-NH2] | remained in solution

same assay, conditions: in PBS; '/' = no gel

Row | Compound | Minimum gelation concentration (w/v % in PBS)
11 | H-Phe-Glu-Phe*-Gln-Trp-Lys-NH2 (H-FE[Phe∗]QWK-NH2; not fully specified; reading uncertain) [compound 15] | 2 w/v %
12 | H-DLys-DPhe-DGlu-DPhe*-DGlu-DPhe-NH2 (H-[dK][dF][dE]F[dE][dF]-NH2; not fully specified (residue 4)) [compound 23] | 2 w/v %
13 | H-DPhe-DGlu-DPhe*-DGln-DPhe-DLys-NH2 (H-[dF][dE]F[dQ][dF][dK]-NH2; not fully specified (residue 3)) [compound 17] | 2 w/v %
14 | H-DPhe-DGlu-DPhe*-DGln-DPhe-DLys-OH (H-[dF][dE]F[dQ][dF][dK]-OH; not fully specified (residue 3)) [compound 25] | 1 w/v %
15 | H-DLys-DPhe-DAsn-DPhe*-DGlu-DPhe-NH2 (H-[dK][dF][dN]F[dE][dF]-NH2; not fully specified (residue 4)) [compound 22] | 2 w/v %
16 | NCCCC[C@H](NC(=O)[C@H](Cc1cccc(Br)c1)NC(=O)[C@H](CCC(N)=O)NC(=O)[C@H](Cc1cccc(Br)c1)NC(=O)[C@H](CCC(N)=O)NC(=O)[C@@H](N)Cc1ccccc1)C(N)=O [compound 32, H-Phe-Gln-Phe(3Br)-Gln-Phe(3Br)-Lys-NH2] (H-FQ[Phe(3-Br)]Q[Phe(3-Br)]K-NH2) | 1-2 w/v %
17 | H-Phe-Glu-Trp*-Gln-Phe-Lys-NH2 (H-FE[Trp∗]QFK-NH2; not fully specified; reading uncertain) [compound 21] | 2 w/v %
18 | H-Phe-Glu-Phe*-Asn-Phe-Lys-NH2 (H-FE[Phe∗]NFK-NH2; not fully specified; reading uncertain) [compound 11] | 1 w/v %
19 | NCCCC[C@H](NC(=O)[C@H](Cc1cccc(Br)c1)NC(=O)[C@H](CCC(N)=O)NC(=O)[C@H](Cc1ccccc1)NC(=O)[C@H](CCC(N)=O)NC(=O)[C@@H](N)Cc1ccccc1)C(N)=O [compound 31, H-Phe-Gln-Phe-Gln-Phe(3Br)-Lys-NH2] (H-FQFQ[Phe(3-Br)]K-NH2) | 1-2 w/v %
20 | H-IEIQIK-NH2 [compound 5, H-Ile-Glu-Ile-Gln-Ile-Lys-NH2] | 2 w/v %
21 | NCCCC[C@H](NC(=O)[C@H](Cc1ccccc1)NC(=O)[C@H](CCC(N)=O)NC(=O)[C@H](Cc1cccc(Br)c1)NC(=O)[C@H](CCC(N)=O)NC(=O)[C@@H](N)Cc1ccccc1)C(N)=O [compound 34, H-Phe-Gln-Phe(3Br)-Gln-Phe-Lys-NH2] (H-FQ[Phe(3-Br)]QFK-NH2) | 1-2 w/v %
22 | NCCCC[C@H](NC(=O)[C@H](CC1CCCCC1)NC(=O)[C@H](CCC(N)=O)NC(=O)[C@H](CC1CCCCC1)NC(=O)[C@H](CCC(=O)O)NC(=O)[C@@H](N)CC1CCCCC1)C(N)=O [compound 9, H-Cha-Glu-Cha-Gln-Cha-Lys-NH2] (H-[Cha]E[Cha]Q[Cha]K-NH2) | 2 w/v %
23 | NCCCC[C@H](NC(=O)[C@H](Cc1cccc(I)c1)NC(=O)[C@H](CCC(N)=O)NC(=O)[C@H](Cc1cccc(I)c1)NC(=O)[C@H](CCC(N)=O)NC(=O)[C@@H](N)Cc1ccccc1)C(N)=O [compound 37, H-Phe-Gln-Phe(3I)-Gln-Phe(3I)-Lys-NH2] (H-FQ[Phe(3-I)]Q[Phe(3-I)]K-NH2) | 1-2 w/v %
24 | NCCCC[C@H](NC(=O)[C@H](Cc1ccc2ccccc2c1)NC(=O)[C@H](CCC(N)=O)NC(=O)[C@H](Cc1ccc2ccccc2c1)NC(=O)[C@H](CCC(=O)O)NC(=O)[C@@H](N)Cc1ccc2ccccc2c1)C(N)=O [compound 13, H-(2-Nal)-Glu-(2-Nal)-Gln-(2-Nal)-Lys-NH2] (H-[2Nal]E[2Nal]Q[2Nal]K-NH2) | 2 w/v %
25 | H-Lys-Phe-Gln-Phe*-Glu-Phe-OH (H-KFQ[Phe∗]EF-OH; not fully specified; reading uncertain) [compound 26] | 2 w/v %
26 | NCCCC[C@H](NC(=O)[C@H](Cc1cccc(I)c1)NC(=O)[C@H](CCC(N)=O)NC(=O)[C@H](Cc1ccccc1)NC(=O)[C@H](CCC(N)=O)NC(=O)[C@@H](N)Cc1ccccc1)C(N)=O [compound 36, H-Phe-Gln-Phe-Gln-Phe(3I)-Lys-NH2] (H-FQFQ[Phe(3-I)]K-NH2) | 1-2 w/v %
27 | H-Trp-Glu-Phe*-Gln-Phe-Lys-NH2 (H-WE[Phe∗]QFK-NH2; not fully specified; reading uncertain) [compound 14] | 2 w/v %
28 | H-Phe-Glu-Phe*-Asn-Phe-Lys-OH (H-FE[Phe∗]NFK-OH; not fully specified; reading uncertain) [compound 10] | 1 w/v %
29 | H-Phe-Glu-Phe*-Lys-Phe-Ser-NH2 (H-FE[Phe∗]KFS-NH2; not fully specified; reading uncertain) [compound 20] | 1 w/v %
30 | NCCCC[C@H](NC(=O)[C@H](Cc1ccc(Br)cc1)NC(=O)[C@H](CCC(N)=O)NC(=O)[C@H](Cc1ccc(Br)cc1)NC(=O)[C@H](CCC(N)=O)NC(=O)[C@@H](N)Cc1ccc(Br)cc1)C(N)=O [compound 35, H-Phe(4Br)-Gln-Phe(4Br)-Gln-Phe(4Br)-Lys-NH2] (H-[Phe(4-Br)]Q[Phe(4-Br)]Q[Phe(4-Br)]K-NH2) | 1-2 w/v %
31 | H-DLys-DPhe-DGln-DPhe*-DGlu-DPhe-NH2 (H-[dK][dF][dQ]F[dE][dF]-NH2; not fully specified (residue 4)) [compound 19] | 2 w/v %
